Reference: the supplement of paper PMC5908809

Key:
[1] = test system: normal NK cells expanded with K562-aAPC; experiment: drug sensitivity score (DSS) (DSS units); higher = more sensitive; extreme values may be limits of the assay; conditions: 72 h; IL-2 2.5 ng/mL
Description: (§1)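 Drug sensitivity and resistance testing on K562-aAPC-expanded normal NK cells: 5 concentrations (10-fold steps over a 10,000-fold range), 72 h at 37 °C, viability by CellTiter-Glo normalised to DMSO and benzethonium chloride controls; DSS from the fitted curve.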

IMC-1 (IL-2 20 ng/mL) [2] = experiment: percent inhibition of viability; higher = more inhibition; conditions: 72 h
NK-92 (IL-2 2.5 ng/mL) [3] = experiment: as above; conditions: 72 h
[4] = test system: normal primary NK cells, pool 3 (3 donors) (IL-2 2.5 ng/mL); experiment: as above; conditions: 72 h
YT (IL-2 2.5 ng/mL) [5] = experiment: as above; conditions: 72 h
NKL (IL-2 2.5 ng/mL) [6] = experiment: as above; conditions: 72 h
[7] = test system: normal primary NK cells, pool 2 (3 donors) (IL-2 2.5 ng/mL); experiment: as above; conditions: 72 h
KHYG-1 (IL-2 2.5 ng/mL) [8] = experiment: as above; conditions: 72 h
KAI3 (IL-2 2.5 ng/mL) [9] = experiment: as above; conditions: 72 h
[10] = test system: normal primary NK cells, pool 1 (3 donors), resting (IL-2 0 ng/mL); experiment: as above; conditions: 72 h
NK-YS (IL-2 2.5 ng/mL) [11] = experiment: as above; conditions: 72 h
[12] = test system: normal primary NK cells, pool 1 (3 donors) (IL-2 2.5 ng/mL); experiment: as above; conditions: 72 h
SNK-6 (IL-2 2.5 ng/mL) [13] = experiment: as above; conditions: 72 h
DERL-7 (IL-2 2.5 ng/mL) [14] = experiment: as above; conditions: 72 h
[15] = test system: normal NK cells expanded with K562-aAPC; experiment: as above; conditions: 72 h, IL-2 2.5 ng/mL
Description: as §1

IMC-1 (IL-2 20 ng/mL) [16] = experiment: drug sensitivity score (DSS) (DSS units); higher = more sensitive; extreme values may be limits of the assay; conditions: 72 h
NK-92 (IL-2 2.5 ng/mL) [17] = experiment: as above; conditions: 72 h
[18] = test system: normal primary NK cells, pool 3 (3 donors) (IL-2 2.5 ng/mL); experiment: as above; conditions: 72 h
YT (IL-2 2.5 ng/mL) [19] = experiment: as above; conditions: 72 h
NKL (IL-2 2.5 ng/mL) [20] = experiment: as above; conditions: 72 h
[21] = test system: normal primary NK cells, pool 2 (3 donors) (IL-2 2.5 ng/mL); experiment: as above; conditions: 72 h
KHYG-1 (IL-2 2.5 ng/mL) [22] = experiment: as above; conditions: 72 h
KAI3 (IL-2 2.5 ng/mL) [23] = experiment: as above; conditions: 72 h
[24] = test system: normal primary NK cells, pool 1 (3 donors), resting (IL-2 0 ng/mL); experiment: as above; conditions: 72 h
NK-YS (IL-2 2.5 ng/mL) [25] = experiment: as above; conditions: 72 h
[26] = test system: normal primary NK cells, pool 1 (3 donors) (IL-2 2.5 ng/mL); experiment: as above; conditions: 72 h
SNK-6 (IL-2 2.5 ng/mL) [27] = experiment: as above; conditions: 72 h
DERL-7 (IL-2 2.5 ng/mL) [28] = experiment: as above; conditions: 72 h

Cn1c(Nc2ccc(C(F)(F)F)cc2)nc2cc(Oc3ccnc(-c4ncc(C(F)(F)F)[nH]4)c3)ccc21 [RAF265] (max concentration tested 1000 nM)
Conditions | drug sensitivity score
DERL-7 (IL-2 2.5 ng/mL) [28] | 5.33
IMC-1 (IL-2 20 ng/mL) [16] | 0.01
KAI3 (IL-2 2.5 ng/mL) [23] | 5.82
KHYG-1 (IL-2 2.5 ng/mL) [22] | 3.28
NK-92 (IL-2 2.5 ng/mL) [17] | 5.13
NK-YS (IL-2 2.5 ng/mL) [25] | 0.99
NKL (IL-2 2.5 ng/mL) [20] | 2.71
SNK-6 (IL-2 2.5 ng/mL) [27] | 1.66
YT (IL-2 2.5 ng/mL) [19] | 0.52
[1] | 2.97
[18] | 0
[21] | 0.47
[24] | 10.2
[26] | 2.83

percent inhibition of viability [%]
Conditions | 0.1 nM | 1 nM | 10 nM | 100 nM | 1000 nM
DERL-7 (IL-2 2.5 ng/mL) [14] | -3.61 | 1.74 | -1.22 | 22.4 | 46.9
IMC-1 (IL-2 20 ng/mL) [2] | -5.99 | -2.17 | -3.34 | -3.31 | 12
KAI3 (IL-2 2.5 ng/mL) [9] | -0.58 | 3.63 | 9.74 | 26.2 | 47.5
KHYG-1 (IL-2 2.5 ng/mL) [8] | -7.83 | -6.28 | -1.05 | 11.5 | 34.9
NK-92 (IL-2 2.5 ng/mL) [3] | -17.8 | -16.1 | -9.27 | 11.7 | 59.3
NK-YS (IL-2 2.5 ng/mL) [11] | -5.8 | -6.28 | -1.83 | 4.39 | 18.3
NKL (IL-2 2.5 ng/mL) [6] | 2.6 | 2.04 | 1.53 | 9.44 | 31.3
SNK-6 (IL-2 2.5 ng/mL) [13] | 6.03 | 2.76 | 3.1 | -14.9 | 44.9
YT (IL-2 2.5 ng/mL) [5] | -4.07 | -2.24 | 1.77 | 6.57 | 15.5
[4] | -13 | 11.3 | 6.16 | -1.81 | 8.78
[7] | -11 | 7.1 | -0.02 | -1.76 | 19.7
[10] | -7.48 | 14.2 | 11.3 | 45.5 | 69.8
[12] | -7.64 | 17.4 | 8.25 | 15.4 | 23
[15] | -1.93 | -2.9 | -2.68 | 12.1 | 30.9

CO[C@H](C(=O)[C@@H](O)[C@@H](C)O)[C@@H]1Cc2cc3cc(O[C@H]4C[C@@H](O[C@@H]5C[C@@H](O)[C@H](O)[C@@H](C)O5)[C@H](O)[C@@H](C)O4)c(C)c(O)c3c(O)c2C(=O)[C@H]1O[C@H]1C[C@@H](O[C@@H]2C[C@@H](O)[C@@H](O[C@@H]3C[C@](C)(O)[C@H](O)[C@@H](C)O3)[C@@H](C)O2)[C@H](O)[C@@H](C)O1 [Plicamycin] (max concentration tested 10000 nM)
Conditions | drug sensitivity score
DERL-7 (IL-2 2.5 ng/mL) [28] | 28.2
IMC-1 (IL-2 20 ng/mL) [16] | 13.4
KAI3 (IL-2 2.5 ng/mL) [23] | 25.2
KHYG-1 (IL-2 2.5 ng/mL) [22] | 28.6
NK-92 (IL-2 2.5 ng/mL) [17] | 19.7
NK-YS (IL-2 2.5 ng/mL) [25] | 31.2
NKL (IL-2 2.5 ng/mL) [20] | 29.5
SNK-6 (IL-2 2.5 ng/mL) [27] | 34.5
YT (IL-2 2.5 ng/mL) [19] | 30.5
[1] | 7.76
[18] | 12.1
[21] | 12.3
[24] | 20.4
[26] | 22.1

percent inhibition of viability [%]
Conditions | 1 nM | 10 nM | 100 nM | 1000 nM | 10000 nM
DERL-7 (IL-2 2.5 ng/mL) [14] | 0.06 | -2.61 | 86.8 | 101 | 101
IMC-1 (IL-2 20 ng/mL) [2] | -2.17 | -0.08 | -16.4 | 69.3 | 100
KAI3 (IL-2 2.5 ng/mL) [9] | -19.1 | -16.3 | 61.1 | 93.9 | 106
KHYG-1 (IL-2 2.5 ng/mL) [8] | -6.39 | 2.63 | 87.8 | 106 | 110
NK-92 (IL-2 2.5 ng/mL) [3] | -10.9 | -13.5 | 17.8 | 94.4 | 108
NK-YS (IL-2 2.5 ng/mL) [11] | -4.88 | 6.73 | 97.1 | 106 | 108
NKL (IL-2 2.5 ng/mL) [6] | -8.9 | -9.19 | 97.5 | 108 | 110
SNK-6 (IL-2 2.5 ng/mL) [13] | 6.54 | 44 | 92.3 | 98.5 | 97.8
YT (IL-2 2.5 ng/mL) [5] | -0.6 | 0.99 | 99 | 109 | 110
[4] | -7.87 | -12.9 | 5.62 | 56.1 | 95.4
[7] | -13 | -9.37 | 5.25 | 58.7 | 91.9
[10] | -24.1 | -3.24 | 28.7 | 88.3 | 89.5
[12] | -2.64 | -1.48 | 31 | 97.5 | 98.2
[15] | -1.48 | 0.95 | 3.45 | 18.5 | 86.7
